Test: Solubility observed when preparing compounds for the cytotoxicity experiments
Type: physicochemical
Conditions: reason for exclusion from cytotoxicity experiments; stocks 1 mM in 100% DMSO
Method: HEK293 cells were plated at 70% density in 24-well plates at 37 °C. All compounds were first dissolved in 100% DMSO to give 1 mM as a stock for the following dilutions. […] Further, the cell viability was measured by the 3-(4,5-Dimethyl-2-thiazolyl)-2,5-diphenyl-2H-tetrazolium bromide (MTT) assay. After incubating for 1h, the reaction product was read at 570 nm using a Synergy HT microplate reader (BioTek Instruments, Winooski, VT, USA).

SMILES: CC(C)(C)NC(=O)COC(=O)c1ccc(B(O)O)cc1 [Compound 5a, (4-((2-(Tert-Butylamino)-2-Oxoethoxy)carbonyl)phenyl)boronic Acid]
- solubility: poor solubility

SMILES: CC(C)(C)NC(=O)C(OC(=O)c1ccc(B(O)O)cc1)c1ccnc2ccccc12 (centres unmarked) [Compound 5i, (4-((2-(Tert-Butylamino)-2-Oxo-1-(Quinolin-4-yl)ethoxy)carbonyl)phenyl)boronic Acid]
- solubility: poor solubility

SMILES: CC(C)(C)NC(=O)C(OC(=O)c1ccc(B(O)O)cc1)c1ccccc1F (centres unmarked) [Compound 5h, (4-((2-(Tert-Butylamino)-1-(2-Fluorophenyl)-2-Oxoethoxy)carbonyl)phenyl)boronic Acid]
- solubility: poor solubility

SMILES: CC(C)C(=O)OC(C(=O)NC(C)(C)C)c1ccc(F)c(B(O)O)c1 (centres unmarked) [Compound 4e, (5-(2-(Tert-Butylamino)-1-(Isobutyryloxy)-2-Oxoethyl)-2-Fluorophenyl)boronic Acid]
- solubility: poor solubility

SMILES: CC(C)(C)NC(=O)COC(=O)c1ccc(B(O)O)c([N+](=O)[O-])c1 [Compound 5l, (4-((2-(Tert-Butylamino)-2-Oxoethoxy)carbonyl)-2-Nitrophenyl)boronic Acid]
- solubility: poor solubility

From article PMC9000886, “Protection-Free Strategy for the Synthesis of Boro-Depsipeptides in Aqueous Media under Microwave-Assisted Conditions” (Molecules, 2022)
